# Biological target: T1, human calcium-sensing receptor (CaSR) (Homo sapiens, UniProt P41180)
# T1 construct: expressed in transfected cells
# T1 sequence (P41180 20-1078): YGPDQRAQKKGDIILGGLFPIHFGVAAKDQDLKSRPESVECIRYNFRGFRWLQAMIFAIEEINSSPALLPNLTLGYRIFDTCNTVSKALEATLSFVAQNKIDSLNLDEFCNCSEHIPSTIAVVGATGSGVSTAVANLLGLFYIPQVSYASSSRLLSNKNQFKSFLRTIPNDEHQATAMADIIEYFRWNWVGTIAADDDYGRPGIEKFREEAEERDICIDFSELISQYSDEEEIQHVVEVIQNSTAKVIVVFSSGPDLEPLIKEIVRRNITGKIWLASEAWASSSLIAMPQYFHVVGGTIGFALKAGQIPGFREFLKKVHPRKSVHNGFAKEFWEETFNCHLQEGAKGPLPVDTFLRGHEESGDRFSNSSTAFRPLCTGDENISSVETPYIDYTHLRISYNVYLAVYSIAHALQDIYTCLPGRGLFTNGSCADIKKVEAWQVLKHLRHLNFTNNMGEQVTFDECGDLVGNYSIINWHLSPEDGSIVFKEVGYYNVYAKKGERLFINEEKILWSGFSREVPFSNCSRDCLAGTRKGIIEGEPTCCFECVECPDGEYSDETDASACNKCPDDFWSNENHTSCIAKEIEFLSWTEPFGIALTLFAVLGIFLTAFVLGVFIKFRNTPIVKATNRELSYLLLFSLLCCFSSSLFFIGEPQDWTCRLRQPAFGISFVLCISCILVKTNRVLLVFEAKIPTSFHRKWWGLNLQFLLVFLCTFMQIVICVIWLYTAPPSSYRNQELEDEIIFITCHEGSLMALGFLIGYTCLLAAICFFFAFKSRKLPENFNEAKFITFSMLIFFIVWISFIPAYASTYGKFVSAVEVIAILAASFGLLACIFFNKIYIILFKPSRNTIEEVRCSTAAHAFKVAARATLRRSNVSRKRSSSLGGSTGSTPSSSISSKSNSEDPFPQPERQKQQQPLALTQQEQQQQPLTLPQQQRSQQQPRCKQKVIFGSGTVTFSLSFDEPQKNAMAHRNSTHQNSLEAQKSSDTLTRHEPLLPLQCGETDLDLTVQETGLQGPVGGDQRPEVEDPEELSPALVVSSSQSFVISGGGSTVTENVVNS
# Test: Inhibitory activity on calcium-sensing receptor (CaSR), intracellular calcium increase as indicator (FLIPR, CHO/hCaSR)
# Assay type: cell-based
# Conditions: CHO cells stably expressing human CaSR; inhibition of intracellular Ca increase induced by extracellular CaCl2
# Description: Evaluation of inhibitory activity on calcium-sensing receptor (CaSR) using intracellular calcium increase as an indicator
# The preparation which is prepared by adding CHO/hCaSR to F12 medium (manufactured by Invitrogen) containing 10% fetal bovine serum to have 2×10^5 cells/mL was applied to a 384-well in an amount of 50 μL/well, and then incubated overnight in a CO2 incubator. The culture supernatant was completely removed, the assay buffer (20 mM HEPES, HBSS (Ca and Mg free) containing 2.5 mM probenecid, pH 7.4) containing Calcium 3 (manufactured by Molecular Devices), i.e., a fluorescent intracellular calcium indicator, was added thereto in an amount of 25 μL/well, and the mixture was maintained for 1 hour in a CO2 incubator. Meanwhile, Calcium 3 was prepared according to the protocol enclosed in FLIPR Calcium 3 Assay Kit (manufactured by Molecular Devices). After maintaining it for 1 hour, a solution in which the test compound is prepared to have 2.1 to 20,000 nM (final concentration of 1.05 to 10,000 nM) by an assay buffer was added thereto in an amount of 25 μL/well, and maintained for 15 minutes in a CO2 incubator. Then, the CaCl2 solution prepared to have […] by using the assay buffer was added in an amount of 25 μL/well, and the resulting intracellular Ca increase (i.e., fluorescence intensity) was measured over time using a fluorescence imaging plate reader (FLIPR, manufactured by Molecular Devices). From the data obtained, the difference between the fluorescence intensity before the addition of CaCl2 solution and the maximum fluorescence intensity after the addition of CaCl2 solution was calculated, and the 50% inhibition concentration (IC50) of the test compound was obtained.
row,Structure (SMILES),IC50 [µM]
1,CCC[C@@H](OC[C@H](O)CN1CCC[C@H]1Cc1ccc(C)c(F)c1)c1cc(Cl)ccc1CCC(=O)O [Example 123],≤ 3.16
2,CCC[C@@H](OC[C@H](O)CN1CCC[C@H]1Cc1ccc(C)c(F)c1)c1ccc(Cl)cc1CCC(=O)O [Example 124],≤ 3.16
3,CCC[C@@H](OC[C@H](O)CN1CCC[C@H]1Cc1ccc(C)c(F)c1)c1cccc(Cl)c1CCC(=O)O [Example 125],≤ 3.16
4,Cc1ccc([C@@H](C)OC[C@H](O)CN2CCC[C@H]2Cc2ccc(C)c(Cl)c2)c(CCC(=O)O)c1 [Example 126],≤ 3.38
5,Cc1ccc(C[C@@H]2CCCN2C[C@@H](O)CO[C@H](C)c2ccc(Cl)cc2CCC(=O)O)cc1Cl [Example 127],≤ 3.24
6,Cc1ccc([C@@H](C)OC[C@H](O)CN2CCC[C@H]2Cc2ccc(Cl)c(F)c2)c(CCC(=O)O)c1 [Example 128],≤ 3.35
7,C[C@@H](OC[C@H](O)CN1CCC[C@H]1Cc1ccc(Cl)c(F)c1)c1cc(F)ccc1CCC(=O)O [Example 130],≤ 3.32
8,C[C@@H](OC[C@H](O)CN1CCC[C@H]1Cc1ccc(Cl)c(F)c1)c1ccc(Cl)cc1CCC(=O)O [Example 131],≤ 3.21
9,C[C@@H](OC[C@H](O)CN1CCC[C@H]1Cc1ccc(Cl)c(F)c1)c1cc(F)cc(F)c1CCC(=O)O [Example 133],≤ 3.2
10,CC[C@@H](OC[C@H](O)CN1CCC[C@H]1Cc1ccc(C)c(Cl)c1)c1ccc(C)cc1CCC(=O)O [Example 136],≤ 3.28
11,CC[C@@H](OC[C@H](O)CN1CCC[C@H]1Cc1ccc(Cl)c(F)c1)c1ccc(Cl)cc1CCC(=O)O [Example 137],≤ 3.12
12,CC[C@@H](OC[C@H](O)CN1CCC[C@H]1Cc1ccc(C)c(Cl)c1)c1cc(F)cc(F)c1CCC(=O)O [Example 140],≤ 3.14
13,CC[C@@H](OC[C@H](O)CN1CCC[C@H]1Cc1ccc(C)c(Cl)c1)c1cccc(Cl)c1CCC(=O)O [Example 142],≤ 3.15
14,CCc1cc(C[C@@H]2CCCN2C[C@@H](O)CO[C@H](C)c2cc(F)c(C)cc2CCC(=O)O)ccc1Cl [Example 146],≤ 3.16
15,CCc1cc(C[C@@H]2CCCN2C[C@@H](O)CO[C@H](C)c2cc(F)c(F)cc2CCC(=O)O)ccc1Cl [Example 147],≤ 3.14
16,Cc1cc(CCC(=O)O)c([C@@H](C)OC[C@H](O)CN2CCC[C@H]2Cc2ccc(Cl)c(F)c2)cc1F [Example 148],≤ 3.23

row,Structure (SMILES),IC50 [µM]
1,C[C@@H](OC[C@H](O)CN1CCC[C@H]1Cc1ccc(Cl)c(F)c1)c1cc(F)c(F)cc1CCC(=O)O [Example 149],≤ 3.2
2,Cc1ccc(C[C@@H]2CCCN2C[C@@H](O)CO[C@H](C)c2cccc(Cl)c2CCC(=O)O)cc1Cl [Example 150],≤ 3.24
3,C[C@@H](OC[C@H](O)CN1CCC[C@H]1Cc1ccc(Cl)c(Cl)c1)c1cccc(Cl)c1CCC(=O)O [Example 151],≤ 3.11
4,CCc1cc(C[C@@H]2CCCN2C[C@@H](O)CO[C@H](C)c2cccc(Cl)c2CCC(=O)O)ccc1Cl [Example 152],≤ 3.15
5,CC[C@@H](OC[C@H](O)CN1CCC[C@H]1Cc1ccc(C)c(F)c1)c1cc(F)c(F)cc1CCC(=O)O [Example 154],≤ 3.24
6,CC[C@@H](OC[C@H](O)CN1CCC[C@H]1Cc1ccc(C)c(F)c1)c1cc(F)cc(F)c1CCC(=O)O [Example 155],≤ 3.24
7,Cc1ccc(C[C@@H]2CCCN2C[C@@H](O)COC(C)c2c(Cl)cccc2CCC(=O)O)cc1F (some centres unmarked) [Example 157],≤ 3.35
8,CCc1cc(C[C@@H]2CCCN2C[C@@H](O)CO[C@H](C)c2ccc(Cl)cc2CCC(=O)O)ccc1Cl [Example 161],≤ 3.15
9,CCc1cc(C[C@@H]2CCCN2C[C@@H](O)CO[C@H](C)c2cccc(C)c2CCC(=O)O)ccc1Cl [Example 163],≤ 3.28
10,CCc1cc(C[C@@H]2CCCN2C[C@@H](O)CO[C@H](C)c2cccc(OC)c2CCC(=O)O)ccc1Cl [Example 165],≤ 3.17
11,COc1cccc([C@@H](C)OC[C@H](O)CN2CCC[C@H]2Cc2ccc(C)c(Cl)c2)c1CCC(=O)O [Example 167],≤ 3.27
12,Cc1ccc(C[C@@H]2CCCN2C[C@@H](O)CO[C@H](C)c2cccc(C)c2CCC(=O)O)cc1Cl [Example 169],≤ 3.38
13,Cc1cccc([C@@H](C)OC[C@H](O)CN2CCC[C@H]2Cc2ccc(Cl)c(F)c2)c1CCC(=O)O [Example 170],≤ 3.35
14,CC[C@@H](OC[C@H](O)CN1CCC[C@H]1Cc1ccc(C)c(Cl)c1)c1cccc(OC)c1CCC(=O)O [Example 171],≤ 3.17
15,CC[C@@H](OC[C@H](O)CN1CCC[C@H]1Cc1ccc(C)c(Cl)c1)c1cccc(C)c1CCC(=O)O [Example 172],≤ 3.28

# The next lines start with the values.
row,IC50 [µM],Structure (SMILES)
1,≤ 3.19,CCc1cc(C[C@@H]2CCCN2C[C@@H](O)CO[C@H](CC)c2cccc(C)c2CCC(=O)O)ccc1Cl [Example 122]
2,≤ 3.15,CC[C@@H](OC[C@H](O)CN1CCC[C@H]1Cc1ccc(C)c(Cl)c1)c1ccc(Cl)cc1CCC(=O)O [Example 129]
3,≤ 3.23,Cc1ccc(C[C@@H]2CCCN2C[C@@H](O)CO[C@H](C)c2cc(F)cc(F)c2CCC(=O)O)cc1Cl [Example 132]
4,≤ 3.25,CC[C@@H](OC[C@H](O)CN1CCC[C@H]1Cc1ccc(C)c(Cl)c1)c1cc(F)ccc1CCC(=O)O [Example 134]
5,≤ 3.23,CC[C@@H](OC[C@H](O)CN1CCC[C@H]1Cc1ccc(Cl)c(F)c1)c1cc(F)ccc1CCC(=O)O [Example 135]
6,≤ 3.25,CC[C@@H](OC[C@H](O)CN1CCC[C@H]1Cc1ccc(C)c(Cl)c1)c1cccc(F)c1CCC(=O)O [Example 138]
7,≤ 3.23,CC[C@@H](OC[C@H](O)CN1CCC[C@H]1Cc1ccc(Cl)c(F)c1)c1cccc(F)c1CCC(=O)O [Example 139]
8,≤ 3.11,CC[C@@H](OC[C@H](O)CN1CCC[C@H]1Cc1ccc(Cl)c(F)c1)c1cc(F)cc(F)c1CCC(=O)O [Example 141]
9,≤ 3.12,CC[C@@H](OC[C@H](O)CN1CCC[C@H]1Cc1ccc(Cl)c(F)c1)c1cccc(Cl)c1CCC(=O)O [Example 143]
10,≤ 3.14,CC[C@@H](OC[C@H](O)CN1CCC[C@H]1Cc1ccc(C)c(Cl)c1)c1cc(F)c(F)cc1CCC(=O)O [Example 144]
11,≤ 3.11,CC[C@@H](OC[C@H](O)CN1CCC[C@H]1Cc1ccc(Cl)c(F)c1)c1cc(F)c(F)cc1CCC(=O)O [Example 145]
12,≤ 3.21,C[C@@H](OC[C@H](O)CN1CCC[C@H]1Cc1ccc(Cl)c(F)c1)c1cccc(Cl)c1CCC(=O)O [Example 153]
13,≤ 3.23,Cc1ccc(C[C@@H]2CCCN2C[C@@H](O)CO[C@H](C)c2cc(F)c(Cl)cc2CCC(=O)O)cc1F [Example 156]
14,≤ 3.45,C[C@@H](OC[C@H](O)CN1CCC[C@H]1Cc1ccc(Cl)c(F)c1)c1ccccc1CCC(=O)O [Example 159]
15,≤ 3.11,C[C@@H](OC[C@H](O)CN1CCC[C@H]1Cc1ccc(Cl)c(Cl)c1)c1ccc(Cl)cc1CCC(=O)O [Example 160]
16,≤ 3.24,Cc1cccc([C@@H](C)OC[C@H](O)CN2CCC[C@H]2Cc2ccc(Cl)c(Cl)c2)c1CCC(=O)O [Example 162]
17,≤ 3.13,COc1cccc([C@@H](C)OC[C@H](O)CN2CCC[C@H]2Cc2ccc(Cl)c(Cl)c2)c1CCC(=O)O [Example 164]
18,≤ 3.35,Cc1ccc(C[C@@H]2CCCN2C[C@@H](O)CO[C@H](C)c2cc(F)ccc2CCC(=O)O)cc1Cl [Example 166]
19,≤ 3.24,COc1cccc([C@@H](C)OC[C@H](O)CN2CCC[C@H]2Cc2ccc(Cl)c(F)c2)c1CCC(=O)O [Example 168]

# From patent US8173631B2, “Cyclic amine compounds” (Daiichi Sankyo Company, Limited, priority 2008, dated 2012)
